In assay [1] the test system is VEGFA (786-O cells). Nature of the assay: VEGFA ELISA Assay (IC50). In kind it is cell-based. To be noted: 24 hours incubation, VEGFA in culture supernatant by ELISA. Here is the method: 786-O cells in exponential growth phase were seeded in 96-well plate, the cell concentration was 65,000 cells per milliliter of culture medium, 180 ul per well. Compounds were serial diluted to the indicated concentration, and 20 ul compound solutions of different concentrations were added to the corresponding cell wells. The final compound concentrations were as follows (nM): 1.5, 4.6, 13.7, 41.2, 123.5, 370.4, 1111.1, 3333.3, 10000. After 24 hours of incubation, the cell culture supernatant was taken, and the VEGFA concentration was determined using an ELISA kit (purchased from abcam). Finally, the reaction was terminated, and the light absorbance value of each well was measured using a microplate reader at a wavelength of […], and IC50 was calculated by GraphPad Prism. Cell Titer-Glo reagent was used to measure cell viability.
In general terms: ELISA stands for enzyme-linked immunosorbent assay.

Assay [2] deals with HIF2α reporter cells (786-O-HIF2α-Luc cells). As to the kind of experiment: Luciferase Assay (HIF2α reporter cells). In kind it is cell-based. The conditions noted are these: 18-20 h, Steady-Glo luminescence. On the procedure:
Luciferase LUC gene was transfected into 786-O cells (purchased from ATCC) using Lipofectamine 3000 Transfection Reagent (purchased from Invitrogen) to construct HIF2α reporter cells (786-O-HIF2α-Luc cells). Experiments were performed when 786-O-HIF2α-Luc cells were in logarithmic growth phase, culture medium (RPMI MEDIUM 1640, purchased from Invitrogen) was abandoned, the cells were rinsed with PBS three times; trypsin (TrypLE, purchased from invitrogen) was added to digest cells, the digestion was terminated by washing the cells with culture medium, 10% fetal bovine serum, 1% penicillin and streptomycin. The cells were collected by centrifugation, rinsed twice with PBS to remove the phenol red in the medium, and then resuspended the cells to an appropriate concentration, and detected the cell density and viability, and made sure the cell viability is above 90% before it can be used for experiments.
The gradient concentration compound was transferred into 384-well plate, 25 nl/well using Echo 550 (non-contact sonic pipetting system, purchased from Labcyte); the cells were seeded in 384-well plate, 4500 cells/well, with 25 μl of culture medium, to make the final concentrations as follows: 10000, 3333, 1111, 370, 123, 41.1, 13.7, 4.6, 1.5, 0.5 nM. Cells were incubated at 37° C., 5% CO2 for 18-20 h; Steady-Glo™ Luciferase Assay System (purchased from Promega) was added to 384 well-plate, 25 μl/well; the luminescence value was detected with Envision. The % inhibition rate was calculated according to the RLU (Record Luminescence) signal value of each well, and then the IC50 of the corresponding compound was calculated by Graphpad 8.0.

Setting [3] is: Homo sapiens, 786-0, 24 h, numeric values.
[4] abbreviates: Homo sapiens, 786-0, 24 h, class symbols.

From patent US20230219890A1, “BICYCLIC COMPOUNDS AND USE THEREOF” (Betta Pharmaceuticals Co.,Ltd, priority 2020, published 2023) come the findings set out here.

As usually defined, the IC50 is the concentration that gives 50% inhibition. Read a high IC50 as lower potency.

As to `N#Cc1ccc(-n2cc(C(F)(F)F)c3c2CCC(F)(F)C3O)cc1C#N` (stereo not drawn) [Example 125, 4-(5,5-difluoro-4-hydroxy-3-(trifluoromethyl)-4,5,6,7-tetrahydro-1H-indol-1-yl)phthalonitrile], the IC50 in assay [1] (setting [3]) was 34 nM; in assay [2] (class symbols), at most 500 nM.
For the compound `N#Cc1cc(-n2cc(C(F)(F)F)c3c2CCC(F)[C@H]3O)ccc1F` (stereo partly drawn) [Example 131, 2-fluoro-5-((4S)-5-fluoro-4-hydroxy-3-(trifluoromethyl)-4,5,6,7-tetrahydro-1H-indol-1-yl)benzonitrile], the IC50 in assay [1] (setting [4]) and in assay [2] (class symbols) was at most 500 nM throughout.
With `OC1c2c(C(F)(F)F)cn(-c3cc(F)c(F)c(F)c3)c2CCC1(F)F` (stereo not drawn) [Example 148], the IC50 in assay [1] (setting [4]) and in assay [2] (class symbols) was at most 500 nM throughout.
Turning to `OC1c2c(C(F)(F)F)cn(-c3ccc(F)c(C(F)(F)F)c3)c2CCC1(F)F` (stereo not drawn) [Example 156, 5,5-difluoro-1-(4-fluoro-3-(trifluoromethyl)phenyl)-3-(trifluoromethy)-4,5,6,7-tetrahydro-1H-indol-4-ol], the IC50 was 15.6 nM in assay [1] (setting [3]) and 70.5 nM in assay [2] (numeric values).
`N#Cc1ccc(-n2cc(C(F)(F)F)c3c2CCC(F)(F)[C@H]3O)cc1C#N` [Example 167, (S)-4-(5,5-difluoro-4-hydroxy-3-(trifluoromethyl)-4,5,6,7-tetrahydro-1H-indol-1-yl)phthalonitrile]: the values for the IC50 in assay [1] (setting [4]) and in assay [2] (numeric values) were at most 500 nM and 69.9 nM, respectively.
Take `OC1c2c(C(F)(F)F)cn(-c3ccc(F)c(C(F)F)c3)c2CCC1(F)F` (stereo not drawn) [Example 168, 1-(3-(difluoromethyl)-4-fluorophenyl)-5,5-difluoro-3-(trifluoromethyl)-4,5,6,7-tetrahydro-1H-indol-4-ol]: the IC50 in assay [1] (setting [3]) stood at 8.4 nM; in assay [2] (numeric values) it was 30.5 nM.
Regarding `O[C@H]1c2c(C(F)(F)F)cn(-c3ccc(F)c(C(F)F)c3)c2CCC1(F)F` [Example 173, (S)-1-(3-(difluoromethyl)-4-fluorophenyl)-5,5-difluoro-3-(trifluoromethyl)-4,5,6,7-tetrahydro-1H-indol-4-ol], the values for the IC50 in assay [1] (setting [3]) and in assay [2] (numeric values) were 17.8 nM and 15.9 nM, respectively.
As for `[2H][C@]1(O)c2c(C(F)(F)F)cn(-c3ccc(F)c(C#N)c3)c2CCC1(F)F` [Example 200, (S)-5-(5,5-difluoro-4-hydroxyl-3-(trifluoromethyl)-4,5,6,7-tetrahydro-1H-indol-1-yl-4-d)-2-fluorobenzonitrile], the IC50 in assay [1] (setting [3]) worked out at 5.6 nM; in assay [2] (numeric values) it was 33.5 nM.
Turning to “(4S,5S)-1-(3-(difluoromethyl)-4-fluorophenyl)-5-fluoro-3-(trifluoromethyl)-4,5,6,7-tetrahydro-1H-indol-4-ol and (4R,5R)-1-(3-(difluoromethyl)-4-fluorophenyl)-5-fluoro-3-(trifluoromethyl)-4,5,6,7-tetrahydro-1H-indol-4-ol [Example 103]”, the values for the IC50 in assay [1] (numeric values) and in assay [2] (class symbols) were 44.1 nM and at most 500 nM, respectively.
